What all share (type): binding
One assay addresses T1, PTGER2 (Homo sapiens, UniProt P43116).
T1 construct: purchased Promega (in-house HiBiT-GPCR construct library, NanoBRET)
Description: NanoBRET screen HiBiT-PTGER2 in HEK293. The protocol:
(§1) Each tracer candidate was screened across the entire library of HiBiT-GPCR constructs using NanoBRET as the detection modality. As depicted in Figure 4A, the specificity of interactions was evaluated through decrease in BRET due to competitive displacement of a bound tracer by excess parental compound. Each tracer was analyzed for binding to each HiBiT-GPCR fusion in the absence and in the presence of competing parental compound. Briefly, HEK293 cells were transfected with HiBiT-GPCR constructs diluted into promoterless DNA to reduce expression and maximize translocation to the cell surface. Each tracer candidate was then screened at concentrations of 1 μM and 0.1 μM across cells expressing these fusions. Cells were treated for 1.5 h with tracer either alone or in the presence of 20 μM competing parental compound (i.e., control). BRET was measured upon addition of purified LgBiT and subsequent complementation with HiBiT genetically fused to a GPCR. The specificity of interactions was assessed through a decrease in BRET signal due to competitive displacement of the bound tracer. To further gauge the robustness of these interactions, the fold response over the control (i.e., BRETtracer/BRETcontrol) was calculated. We chose a 1.5-fold response, which translates to ≥7-fold signal over noise as the minimal threshold required to score an interaction as positive. […]. Below we highlight the screening results obtained for our exemplary fluorescent tracers based on Clozapine, Amitriptyline and AZD1283.
(§2) HiBiT-GPCR DNA constructs were diluted in 10 mM Tris pH 8 to a final concentration of 0.01 μg/μL, arrayed in 96-well plates and stored at −20 °C. For transfection, HEK293 cells were suspended in Opti-MEM (without phenol red) supplemented with 2% fetal bovine serum (Seradigm) and 100 units/mL penicillin–streptomycin (Gibco) at a final concentration of 220,000 cells/mL and dispensed into white 96-well plates at 90 μL/well. Subsequent transfections and screens were carried using an Agilent Bravo Automated Liquid Handling Platform. First, the 96-well HiBiT DNA arrays were diluted 25-fold in Opti-MEM (without serum or phenol red) to a final concentration of 0.0004 μg/μL and 20 μL of the diluted DNAs were transferred into new 96-well plates. Next, promoterless carrier DNA (1 μg/μL) was diluted 25-fold (0.04 μg/μL) and then dispensed into the diluted arrays at 20 μL/well. Following brief mixing, Viafect transfection reagent (Promega) diluted 16-fold into Opti-MEM was dispensed into the plates at 40 μL/well. After mixing by pipetting, plates were incubated for 10 min on the pipetting station deck. The DNA-transfection reagent complexes were then added to plates containing cells. To facilitate the screen, 10 μL of DNA-transfection reagent complexes were added in duplicates to the top 4 and bottom 4 rows, resulting in two identical 48-well arrays per plate. Plates with transfected cells were incubated for 18–20 h at 37 °C/5% CO2. A screen of each tracer across the entire library using two different concentrations requires duplicate plates of transfected cells. Depending on the number of tracers being screened, transfections can be scaled up using the same ratios. The next day, for each tracer, four 20× screening solutions in tracer dilution buffer (Promega) were prepared: two duplicates at final concentration of 20 μM and two duplicates at a final concentration of 2 μM. A competing unmodified compound was added to one of each duplicate at a final concentration of 400 μM. The four resulting solutions were diluted 4-fold in Opti-MEM without serum or phenol red to generate 5× solutions (5 µM and 0.5 µM tracer +/− 100 μM competing compound). To screen the library, a BioTek MultiFlo FX liquid dispenser was used to dispense 22.5 µL of tracer solution to the top 4 rows and 22.5 µL tracer + competing compound solution to the 4 bottom rows. Plates were briefly mixed on an orbital shaker and incubated for 1.5 h at room temperature. […]
(In BRET a luciferase serves as donor, and the signal depends on an acceptor being close.)

The next assay has as its target T2, NPY1R (Homo sapiens, UniProt P25929).
T2 construct: purchased Promega (in-house HiBiT-GPCR construct library, NanoBRET)
T2 sequence (P25929 1-384): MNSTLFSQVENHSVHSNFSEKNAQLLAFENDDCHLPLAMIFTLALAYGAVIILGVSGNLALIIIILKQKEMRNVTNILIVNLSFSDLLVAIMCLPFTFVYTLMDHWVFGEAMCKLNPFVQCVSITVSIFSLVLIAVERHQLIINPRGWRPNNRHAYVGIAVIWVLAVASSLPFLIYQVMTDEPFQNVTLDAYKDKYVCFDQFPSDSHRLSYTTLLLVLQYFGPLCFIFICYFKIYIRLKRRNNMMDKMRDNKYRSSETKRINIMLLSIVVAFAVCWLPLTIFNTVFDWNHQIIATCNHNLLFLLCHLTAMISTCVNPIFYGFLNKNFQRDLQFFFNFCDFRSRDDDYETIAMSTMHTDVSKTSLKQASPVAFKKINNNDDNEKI
Description: NanoBRET screen HiBiT-NPY1R in HEK293. The protocol:
as §1, §2

The target in another assay is T3, NPBWR2 (Homo sapiens, UniProt P48146).
T3 construct: purchased Promega (in-house HiBiT-GPCR construct library, NanoBRET)
Put plainly: NanoBRET screen HiBiT-NPBWR2 in HEK293. The method, then:
as §1, §2

Another assay addresses T4, P2RY12 (Homo sapiens, UniProt Q9H244).
T4 construct: purchased Promega (in-house HiBiT-GPCR construct library, NanoBRET)
Put plainly: NanoBRET screen HiBiT-P2RY12 in HEK293. The method, then: as §1, §2

Another assay has as its target T5, F2R (Homo sapiens, UniProt P25116).
T5 construct: purchased Promega (in-house HiBiT-GPCR construct library, NanoBRET)
T5 sequence (P25116 22-425): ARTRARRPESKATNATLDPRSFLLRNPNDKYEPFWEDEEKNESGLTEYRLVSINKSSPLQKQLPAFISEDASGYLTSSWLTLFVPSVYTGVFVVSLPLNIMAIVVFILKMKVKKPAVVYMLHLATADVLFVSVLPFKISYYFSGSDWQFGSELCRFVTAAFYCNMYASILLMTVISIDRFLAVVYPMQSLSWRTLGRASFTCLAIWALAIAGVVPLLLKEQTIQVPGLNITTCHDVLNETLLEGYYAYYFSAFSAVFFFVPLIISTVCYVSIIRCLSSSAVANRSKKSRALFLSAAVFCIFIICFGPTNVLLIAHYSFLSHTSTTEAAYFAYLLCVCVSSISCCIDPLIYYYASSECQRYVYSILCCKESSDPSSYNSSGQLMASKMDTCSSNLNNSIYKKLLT
Description: NanoBRET screen HiBiT-F2R in HEK293. The protocol:
as §1, §2

T1 sequence (P43116 whole entry): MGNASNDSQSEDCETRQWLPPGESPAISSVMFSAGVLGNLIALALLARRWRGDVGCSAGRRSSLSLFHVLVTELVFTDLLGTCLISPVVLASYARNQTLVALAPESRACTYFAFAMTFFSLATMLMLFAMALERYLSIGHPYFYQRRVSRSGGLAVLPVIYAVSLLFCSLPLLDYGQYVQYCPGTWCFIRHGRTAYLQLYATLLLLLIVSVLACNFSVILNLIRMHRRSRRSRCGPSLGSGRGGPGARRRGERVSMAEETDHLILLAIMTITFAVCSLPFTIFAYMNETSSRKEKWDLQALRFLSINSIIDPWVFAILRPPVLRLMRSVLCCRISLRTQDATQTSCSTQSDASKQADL
T4 sequence (Q9H244 whole entry, one chain of several): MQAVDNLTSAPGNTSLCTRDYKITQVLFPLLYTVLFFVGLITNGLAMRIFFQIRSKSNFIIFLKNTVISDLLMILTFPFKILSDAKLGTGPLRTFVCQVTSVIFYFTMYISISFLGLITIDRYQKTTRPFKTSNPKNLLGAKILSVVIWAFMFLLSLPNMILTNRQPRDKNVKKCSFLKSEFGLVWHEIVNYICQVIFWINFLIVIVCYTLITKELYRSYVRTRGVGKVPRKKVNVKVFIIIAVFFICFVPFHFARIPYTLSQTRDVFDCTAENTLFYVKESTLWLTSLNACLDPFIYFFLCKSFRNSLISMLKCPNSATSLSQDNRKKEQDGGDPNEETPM
T3 sequence (P48146 whole entry): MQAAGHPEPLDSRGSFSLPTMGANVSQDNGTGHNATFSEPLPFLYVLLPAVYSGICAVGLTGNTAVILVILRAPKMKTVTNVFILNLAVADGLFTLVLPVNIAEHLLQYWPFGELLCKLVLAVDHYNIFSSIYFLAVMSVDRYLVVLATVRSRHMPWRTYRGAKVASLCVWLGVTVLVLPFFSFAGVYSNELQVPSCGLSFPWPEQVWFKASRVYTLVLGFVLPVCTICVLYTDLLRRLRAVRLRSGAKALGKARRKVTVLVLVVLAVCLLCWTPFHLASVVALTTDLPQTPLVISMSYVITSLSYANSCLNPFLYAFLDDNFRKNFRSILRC

Turning to `COc1ccccc1N1CCN(CCCCN2C(=O)c3ccc(CNC(=O)CCOCCNC(=O)c4ccc(CNC(=O)CCc5ccc6n5[B-](F)(F)[N+]5=C(c7ccc[nH]7)C=CC5=C6)cc4)cc3C2=O)CC1` [NAN-190-3-NB590], the “NanoBRET Fold Response” value at PTGER2 (PTGER2, tracer 0.1μM) was determined as 1.06; at PTGER2 (PTGER2, tracer 1μM) it was 1.00; at NPY1R (NPY1R, tracer 0.1μM), 0.88; on NPY1R (NPY1R, tracer 1μM), 0.94; on NPBWR2 (NPBWR2, tracer 0.1μM), 0.96; at NPBWR2 (NPBWR2, tracer 1μM), 0.79. Besides, the “NanoBRET Fold Response” value on P2RY12 (P2RY12, tracer 0.1μM) was found to be 1.12; at P2RY12 (P2RY12, tracer 1μM), 1.10; at F2R (F2R, tracer 0.1μM), 0.97; on F2R (F2R, tracer 1μM), 1.11.
`O=C(CCc1ccc2n1[B-](F)(F)[N+]1=C(c3ccc[nH]3)C=CC1=C2)NCc1ccc(C(=O)NCCOCCOCCNCC(O)COc2cccc3ccccc23)cc1` (centres unmarked) [Propranolol-3-NB590]: the “NanoBRET Fold Response” value at PTGER2 (PTGER2, 0.1μM) is given as 1.00; on PTGER2 (PTGER2, 1μM) it was 1.02; at NPY1R (NPY1R, 0.1μM), 1.08; on NPY1R (NPY1R, 1μM), 0.99; on NPBWR2 (NPBWR2, 0.1μM), 1.05; at NPBWR2 (NPBWR2, 1μM) it was 1.05. Also, the “NanoBRET Fold Response” value on P2RY12 (P2RY12, 0.1μM) is 1.02; on P2RY12 (P2RY12, 1μM), 0.94; at F2R (F2R, 0.1μM) it was 1.04; at F2R (F2R, 1μM), 1.06.
As to `COc1ccc2c(n1)c(CCNC(C)=O)cn2CCNC(=O)CCc1ccc2n1[B-](F)(F)[N+]1=C(c3ccc[nH]3)C=CC1=C2` [Azamelatonin-1-NB590], the “NanoBRET Fold Response” value at PTGER2 (0.1μM tracer) was determined as 1.01; at PTGER2 (1μM tracer) it was 1.07; on NPY1R (0.1μM tracer) it was 0.93; on NPY1R (1μM tracer), 0.68; on NPBWR2 (0.1μM tracer), 0.91; at NPBWR2 (1μM tracer), 0.82. The “NanoBRET Fold Response” value is 1.02 at P2RY12 (0.1μM tracer), 1.02 at P2RY12 (1μM tracer), 0.98 on F2R (0.1μM tracer) and 0.96 at F2R (1μM tracer).
As to `O=C(CCOCCOCCOCCOCCNC(=O)CCc1ccc2n1[B-](F)(F)[N+]1=C(c3ccc[nH]3)C=CC1=C2)NCCCN1CCN(C2=Nc3ccccc3Oc3ccc(Cl)cc32)CC1` [Loxapine-a-2-NB590], the “NanoBRET Fold Response” value at PTGER2 (PTGER2, tracer 0.1μM) is on record as 1.03; at PTGER2 (PTGER2, tracer 1μM) it was 1.03; at NPY1R (NPY1R, tracer 0.1μM) it was 0.94; on NPY1R (NPY1R, tracer 1μM), 1.09; at NPBWR2 (NPBWR2, tracer 0.1μM), 1.07; on NPBWR2 (NPBWR2, tracer 1μM) it was 0.93. In addition, the “NanoBRET Fold Response” value on P2RY12 (P2RY12, tracer 0.1μM) came to 0.99; at P2RY12 (P2RY12, tracer 1μM) it was 0.84; on F2R (F2R, tracer 0.1μM), 0.97; at F2R (F2R, tracer 1μM), 1.05.
`CC(C)N(CC[C@H](c1ccccc1)c1cc(CCNC(=O)c2ccc(CNC(=O)CCc3ccc4n3[B-](F)(F)[N+]3=C(c5ccc[nH]5)C=CC3=C4)cc2)ccc1O)C(C)C` [Tolterodine-BZ-NB590]: the “NanoBRET Fold Response” value on PTGER2 (PTGER2, tracer 0.1μM) is on record as 1.04; on PTGER2 (PTGER2, tracer 1μM), 0.97; at NPY1R (NPY1R, tracer 0.1μM) it was 1.15; on NPY1R (NPY1R, tracer 1μM), 0.95; at NPBWR2 (NPBWR2, tracer 0.1μM) it was 0.96; on NPBWR2 (NPBWR2, tracer 1μM), 1.06. In addition, the “NanoBRET Fold Response” value at P2RY12 (P2RY12, tracer 0.1μM) came out at 1.08; at P2RY12 (P2RY12, tracer 1μM) it was 0.91; on F2R (F2R, tracer 0.1μM), 1.09; at F2R (F2R, tracer 1μM), 0.85.
For the molecule `O=C(CCc1ccc2n1[B-](F)(F)[N+]1=C(c3ccc[nH]3)C=CC1=C2)NCCOCCOCCNC(=O)OCCOCCN1CCN(C2=Nc3ccccc3Sc3ccccc32)CC1` [Quetiapine-a-2-NB590], the “NanoBRET Fold Response” value at PTGER2 (PTGER2, tracer 0.1μM) was 0.96; at PTGER2 (PTGER2, tracer 1μM), 1.05; at NPY1R (NPY1R, tracer 0.1μM), 1.03; at NPY1R (NPY1R, tracer 1μM) it was 0.71; on NPBWR2 (NPBWR2, tracer 0.1μM) it was 0.97; on NPBWR2 (NPBWR2, tracer 1μM) it was 1.09. For the same molecule, the “NanoBRET Fold Response” value on P2RY12 (P2RY12, tracer 0.1μM) is listed as 0.99; at P2RY12 (P2RY12, tracer 1μM) it was 0.92; at F2R (F2R, tracer 0.1μM) it was 1.09; on F2R (F2R, tracer 1μM), 1.41.
For the molecule `CN1CCN(C2=Nc3cc(Cl)ccc3Nc3ccc(CNC(=O)CCOCCOCCOCCOCCNC(=O)CCc4ccc5n4[B-](F)(F)[N+]4=C(c6ccc[nH]6)C=CC4=C5)cc32)CC1` [Clozapine-b-2-NB590], the “NanoBRET Fold Response” value on PTGER2 (PTGER2, 0.1μM tracer) turned out to be 1.01; on PTGER2 (PTGER2, 1μM tracer) it was 0.98; on NPY1R (NPY1R, 0.1μM tracer) it was 1.00; at NPY1R (NPY1R, 1μM tracer) it was 1.03; at NPBWR2 (NPBWR2, 0.1μM tracer), 0.99; on NPBWR2 (NPBWR2, 1μM tracer), 1.08. Further, the “NanoBRET Fold Response” value at P2RY12 (P2RY12, 0.1μM tracer) was determined as 1.00; on P2RY12 (P2RY12, 1μM tracer), 0.97; on F2R (F2R, 0.1μM tracer), 1.02; on F2R (F2R, 1μM tracer), 1.01.
Regarding `CC(C)N(CC[C@H](c1ccccc1)c1cc(CCNC(=O)CCOCCOCCOCCOCCNC(=O)CCc2ccc3n2[B-](F)(F)[N+]2=C(c4ccc[nH]4)C=CC2=C3)ccc1O)C(C)C` [Tolterodine-2-NB590], the “NanoBRET Fold Response” value at PTGER2 (PTGER2, tracer 0.1μM) was found to be 1.00; at PTGER2 (PTGER2, tracer 1μM), 1.01; on NPY1R (NPY1R, tracer 0.1μM), 1.16; at NPY1R (NPY1R, tracer 1μM), 1.00; on NPBWR2 (NPBWR2, tracer 0.1μM) it was 1.41; at NPBWR2 (NPBWR2, tracer 1μM), 0.83. For the same molecule, the “NanoBRET Fold Response” value at P2RY12 (P2RY12, tracer 0.1μM) is on record as 0.93; at P2RY12 (P2RY12, tracer 1μM) it was 0.95; on F2R (F2R, tracer 0.1μM) it was 1.20; at F2R (F2R, tracer 1μM), 1.03.

Values taken from paper PMC8151276, “An Integrated Approach toward NanoBRET Tracers for Analysis of GPCR Ligand Engagement” (Molecules, 2021).
